According to the supplement of paper PMC8967900:

Tests used:
Assay in all cases: selective drug sensitivity score (sDSS, relative to normal bone marrow) (sDSS (score)); higher = more potent and effective on the cell line relative to normal bone marrow cells
Conditions in all cases: 72 h
DND-41 = system: DND-41
REH = system: REH
MOLT-14 = system: MOLT-14
KARPAS-45 = system: KARPAS-45
LC4-1 = system: LC4-1
HAL-01 = system: HAL-01
TANOUE = system: TANOUE
RCH-ACV = system: RCH-ACV
MHH-CALL-3 = system: MHH-CALL-3
TMD5 = system: TMD5
NALM-6 = system: NALM-6
ALL-SIL = system: ALL-SIL
KASUMI-2 = system: KASUMI-2
PEER = system: PEER
COG-LL-394h = system: COG-LL-394h
MN-60 = system: MN-60
COG-LL-402h = system: COG-LL-402h
COG-LL-317 = system: COG-LL-317
CCRF-CEM = system: CCRF-CEM
HPB-ALL = system: HPB-ALL
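Note: ALL cell lines in 384-well plates, five doses spanning 10,000-fold, each plate scaled between vehicle and 100 µmol/L benzalkonium chloride controls, sDSS an adapted area-under-curve metric.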

SMILES	selective drug sensitivity score (DND-41)	selective drug sensitivity score (REH)	selective drug sensitivity score (MOLT-14)	selective drug sensitivity score (KARPAS-45)	selective drug sensitivity score (LC4-1)	selective drug sensitivity score (HAL-01)	selective drug sensitivity score (TANOUE)	selective drug sensitivity score (RCH-ACV)	selective drug sensitivity score (MHH-CALL-3)	selective drug sensitivity score (TMD5)	selective drug sensitivity score (NALM-6)	selective drug sensitivity score (ALL-SIL)	selective drug sensitivity score (KASUMI-2)	selective drug sensitivity score (PEER)	selective drug sensitivity score (COG-LL-394h)	selective drug sensitivity score (MN-60)	selective drug sensitivity score (COG-LL-402h)	selective drug sensitivity score (COG-LL-317)	selective drug sensitivity score (CCRF-CEM)	selective drug sensitivity score (HPB-ALL)
CC(C)Oc1ccc(C(=O)N[C@H](CNC(=O)CN(C)C)Cc2ccc(-c3cn4cccc([C@H](C)O)c4n3)cc2)cc1Cl (top concentration 10000 nM)	-2.62	12.1	17.4	7.48	8.28	1.98	-9.32	18	-9.32	5.18	7.68	12.8	6.38	19.9	-0.72	-1.62	10.6	16.6	16.2	8.18
CCn1c(-c2nonc2N)nc2cnc(Oc3cccc(NC(=O)c4ccc(OCCN5CCOCC5)cc4)c3)cc21 (top concentration 10000 nM)	0.86	4.56	2.46	15.2	17	9.96	-5.44	17.1	-2.34	6.36	6.76	4.06	14.3	16.6	1.56	-3.54	7.66	7.46	15.8	-1.14
CC(C)(C#N)c1cc(Cn2cncn2)cc(C(C)(C)C#N)c1 [Anastrozole] (top concentration 10000 nM)	2.9	0	0	0	0	0	0	0	0	0.6	0	0	0	0	0	0	0	0	0	0.2
Cc1sc2c(c1C)C(c1ccc(Cl)cc1)=N[C@@H](CC(=O)Nc1ccc(O)cc1)c1nnc(C)n1-2 [Birabresib] (top concentration 10000 nM)	0.92	-3.18	1.72	9.42	4.92	-0.78	-4.78	12	14	-9.18	3.72	0.02	-9.68	-0.08	-0.08	6.72	7.12	9.12	1.22	-0.08
Nc1ccn([C@@H]2O[C@H](CO)[C@@H](O)[C@@H]2O)c(=O)n1 [Cytarabine] (top concentration 10000 nM)	16.3	21.8	25.6	-7.7	21	21.8	-8.9	28.1	15.8	-10	25.2	15.1	16.6	12.2	-10	1.3	26.9	27.2	25.7	2.7
COc1cccc2c1C(=O)c1c(O)c3c(c(O)c1C2=O)C[C@@](O)(C(C)=O)C[C@@H]3O[C@H]1C[C@H](N)[C@H](O)[C@H](C)O1 [Daunorubicin] (top concentration 1000 nM)	-0.54	6.16	9.66	-0.34	6.36	-2.24	-9.54	12.6	16.4	1.86	6.36	1.26	10.8	-3.84	8.66	-0.34	15.8	14.8	9.16	-1.64
Nc1ncn([C@H]2C[C@H](O)[C@@H](CO)O2)c(=O)n1 [Decitabine] (top concentration 10000 nM)	-4.66	3.94	0.44	-6.06	-0.06	-1.76	-6.06	10.1	2.34	-5.56	-3.06	-3.06	-2.26	2.94	-6.06	-5.86	3.34	14.9	4.44	-0.66
CCN(CC)C(=S)SSC(=S)N(CC)CC [Disulfiram(+CuCl2)] (top concentration 50000 nM)	-2.12	-0.32	-2.02	-2.12	7.38	16.3	-1.62	5.38	1.78	-2.12	-2.12	-2.12	5.18	-2.12	-1.02	-2.12	-0.32	-2.12	-2.12	15.8
Nc1nc(F)nc2c1ncn2[C@@H]1O[C@H](CO)[C@@H](O)[C@@H]1O [Fludarabine] (top concentration 10000 nM)	5.5	-1.3	4.3	-10.3	6	4	-10.3	5.9	7.5	-10.6	4.6	3	5.3	-9.3	-10.6	-4.5	8	3.3	2.3	0.3
Nc1nc(OCc2cc(Br)cs2)c2[nH]cnc2n1 [Lomeguatrib] (top concentration 10000 nM)	0	1.2	0	0	0.8	0	0	0.8	0	0	0	0	0	0	0	0	0	0	0	0.1
Cc1cc(OCc2nnc(SC3CCCC3)n2-c2cccnc2)ccc1-c1ccc(S(C)(=O)=O)cc1 [NMS-873] (top concentration 10000 nM)	4.46	12	7.16	11.4	4.76	1.06	19.4	11.7	6.06	2.26	7.36	8.96	4.26	22.9	14.6	12.1	2.56	0.16	1.46	6.26
COC(=O)c1ccc2c(c1)NC(=O)/C2=C(\Nc1ccc(N(C)C(=O)CN2CCN(C)CC2)cc1)c1ccccc1 [Nintedanib] (top concentration 10000 nM)	-3.16	-5.16	1.64	0.54	-4.36	3.34	-6.36	3.64	-0.26	0.84	-2.36	14.3	-6.36	5.94	2.14	-6.36	5.14	-1.76	-1.46	0.64
O=C(c1cc(Cc2n[nH]c(=O)c3ccccc23)ccc1F)N1CCN(C(=O)C2CC2)CC1 [Olaparib] (top concentration 10000 nM)	1.28	1.48	10.4	0.38	2.68	4.88	-3.42	7.38	21.9	4.48	1.48	-0.02	4.78	1.28	-1.32	-2.42	4.38	13	3.78	-1.32
O=C(O)C(=O)O.[NH-][C@@H]1CCCC[C@H]1[NH-].[Pt+2] [Oxaliplatin] (top concentration 100000 nM)	1.42	10	9.22	-0.08	10.6	15.3	-6.98	11.6	10.3	-0.08	6.12	3.42	12.8	0.62	8.32	-0.38	12.9	17.2	8.22	-0.78
CS(=O)(=O)N1CCN(Cc2cc3nc(-c4cccc5[nH]ncc45)nc(N4CCOCC4)c3s2)CC1 [Pictilisib] (top concentration 10000 nM)	-1.44	10.5	-2.04	6.36	0.16	14.4	-5.84	26.2	10.6	2.56	12.9	4.56	8.46	-2.24	-0.74	2.96	12.9	-0.94	5.36	-0.04
CCOC(=O)C1=CCCC[C@H]1S(=O)(=O)Nc1ccc(F)cc1Cl [Resatorvid] (top concentration 10000 nM)	0	0	0	0	0	0	0	0	0	0	0	0	0	0	0	0	0.4	0	0	0
CO[C@H]1C[C@@H]2CC[C@@H](C)[C@@](O)(O2)C(=O)C(=O)N2CCCC[C@H]2C(=O)O[C@H]([C@H](C)C[C@@H]2CC[C@@H](OP(C)(C)=O)[C@H](OC)C2)CC(=O)[C@H](C)/C=C(\C)[C@@H](O)[C@@H](OC)C(=O)[C@H](C)C[C@H](C)/C=C/C=C/C=C/1C [Ridaforolimus] (top concentration 100 nM)	-2.54	6.96	-2.44	1.56	4.46	-4.34	-4.84	18.9	3.96	-4.84	-4.84	3.06	8.66	7.26	-4.84	5.16	4.66	2.76	7.36	-4.84
CCc1c2c(nc3ccc(O)cc13)-c1cc3c(c(=O)n1C2)COC(=O)[C@]3(O)CC [SN-38] (top concentration 10000 nM)	25.5	27.2	28	3.98	27.1	21.8	-5.52	27.6	16.2	18.3	22.1	27.3	18.8	12.8	13.8	7.28	21.1	27.6	27.6	11.2
